Assay results reported in patent US9206156B2, “Substituted indole derivatives” (GRÜNENTHAL GMBH, priority 2008, dated 2015).

Legend:
[1] = target: T1, human μ-opiate receptor (Homo sapiens, UniProt P35372); test: μ-opiate receptor binding assay with [3H] naloxone (WGA-SPA beads); details: 1 μmol/l test substance, 1 nmol/l [3H] naloxone, CHO-K1 cell membranes expressing human μ-opiate receptor
T1 construct: purchased NEN, Zaventem, Belgium RB-HOM; host or cells: CHO-K1 cells (membrane preparation)
Description: The receptor affinity to the human μ-opiate receptor was determined in a homogeneous batch in microtitre plates. To this end, dilution series of the substituted indole derivative to be tested were incubated for 90 minutes at room temperature with a receptor membrane preparation (15-40 μg protein per 250 μl incubation batch) of CHO-K1 cells, which express the human μ-opiate receptor (RB—HOM receptor membrane preparation from NEN, Zaventem, Belgium), in the presence of 1 nmol/l of the radioactive ligand [^3H] naloxone (NET719, NEN, Zaventem, Belgium) and 1 mg of WGA-SPA beads (wheat germ agglutinin SPA beads from Amersham/Pharmacia, Freiburg, Germany) in a total volume of 250 μl. 50 mmol/l tris-HCl supplemented with 0.05 wt. % sodium azide and 0.06 wt. % bovine serum albumin were used as the incubation buffer. In order to determine the non-specific binding, 25 μmol/l of naloxone were also added. At the end of the ninety-minute incubation period the microtitre plates were centrifuged for 20 minutes at 1000 g and the radioactivity was measured in a β counter (Microbeta-Trilux, PerkinElmer Wallac, Freiburg, Germany). The percentage displacement of the radioactive ligand from its binding to the human μ-opiate receptor was determined at a test substance concentration of 1 μmol/l and stated as the percentage inhibition (% inhibition) of the specific binding. In some cases the percentage displacement due to differing concentrations of the compounds having the general formula I to be tested was used to calculate the IC50 inhibition concentrations which bring about a 50-percent displacement of the radioactive ligand. Ki values for the test substances were obtained by extrapolation using the Cheng-Prusoff equation.

[2] = target: T2, ORL1 receptor (Homo sapiens, UniProt P41146); test: ORL1 receptor binding assay with 3H-nociceptin/orphanin FQ (WGA-SPA beads); details: c=1 μM test substance; 0.5 nM 3H-nociceptin/orphanin FQ; membranes of recombinant CHO-ORL1 cells
T2 construct: expressed in transfected cells; host or cells: CHO (recombinant CHO-ORL1 cells), membranes
Description: Measurement of ORL1 Binding
The cyclohexane derivatives having the general formula I were investigated in a receptor binding assay with ^3H-nociceptin/orphanin FQ with membranes of recombinant CHO—ORL1 cells. This test system was conducted in accordance with the method described by Ardati et al. (Mol. Pharmacol., 51, 1997, p. 816-824). The concentration of ^3H-nociceptin/orphanin FQ in these tests was 0.5 nM. The binding assays were carried out with 20 μg amounts of membrane protein per 200 μl batch in 50 mM Hepes, pH 7.4, 10 mM MgCl2 and 1 mM EDTA. The binding to the ORL1 receptor was determined using 1 mg amounts of WGA-SPA beads (Amersham-Pharmacia, Freiburg, Germany), by incubation of the batch for one hour at room temperature and subsequent measurement in a Trilux scintillation counter (Wallac, Finland). The affinity is given in Table 1 as the nanomolar Ki value or in % inhibition at c=1 μM.

T2 sequence (P41146 whole entry): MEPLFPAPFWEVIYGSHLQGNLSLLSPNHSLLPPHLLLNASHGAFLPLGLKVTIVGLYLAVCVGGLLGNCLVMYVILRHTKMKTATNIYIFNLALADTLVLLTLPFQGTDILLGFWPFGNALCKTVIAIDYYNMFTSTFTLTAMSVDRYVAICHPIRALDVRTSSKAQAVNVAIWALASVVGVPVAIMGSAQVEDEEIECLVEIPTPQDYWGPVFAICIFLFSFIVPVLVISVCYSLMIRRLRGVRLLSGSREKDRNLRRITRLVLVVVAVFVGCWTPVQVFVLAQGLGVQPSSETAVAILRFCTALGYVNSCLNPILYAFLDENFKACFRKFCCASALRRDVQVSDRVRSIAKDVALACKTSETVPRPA
T1 sequence (P35372 whole entry): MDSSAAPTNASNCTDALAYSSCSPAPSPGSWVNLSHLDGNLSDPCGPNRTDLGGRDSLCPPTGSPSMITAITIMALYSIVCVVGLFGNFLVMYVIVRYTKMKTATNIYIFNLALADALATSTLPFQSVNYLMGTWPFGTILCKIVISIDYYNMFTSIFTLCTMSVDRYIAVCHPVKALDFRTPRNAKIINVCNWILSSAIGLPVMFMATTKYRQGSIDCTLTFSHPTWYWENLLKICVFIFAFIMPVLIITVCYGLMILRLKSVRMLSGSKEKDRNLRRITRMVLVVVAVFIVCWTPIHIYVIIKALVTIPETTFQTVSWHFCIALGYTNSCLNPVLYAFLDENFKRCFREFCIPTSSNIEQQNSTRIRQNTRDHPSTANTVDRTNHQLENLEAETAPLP

SMILES	inhibition at 1 µM [1] [%]	inhibition at 1 µM [2] [%]	% Inhibition (μ) at 1 μM ([1]; 1 µM) [%]	% Inhibition (ORL1) at 1 μM [2] [%]	% Inhibition (μ) at 1 μM [1] [%]
CN(C)C1(c2ccccc2)CCN(C(=O)C2CCCN(Cc3ccc4cc[nH]c4c3)C2)CC1 (stereo not shown) [Example 152, (1-((1H-indol-6-yl)methyl)piperidin-3-yl)(4-(dimethylamino)-4-phenylpiperidin-1-yl)methanone]	93	80			
CN(C)C1(c2cccs2)CCN(C(=O)CC(NC(=O)c2ccc3cc[nH]c3c2)c2ccccc2)CC1 (stereo not shown) [Example 96, N-(3-(4-(dimethylamino)-4-(thiophen-2-yl)piperidin-1-yl)-3-oxo-1-phenylpropyl)-1H-indole-6-carboxamide]	96	79			
CC(C)C(CC(=O)N(C)CCN1CCC(c2ccccc2)(N(C)C)CC1)c1c[nH]c2ccccc12 (stereo not shown) [Example 24, N-(2-(4-(Dimethylamino)-4-phenylpiperidin-1-yl)ethyl)-3-(1H-indol-3-yl)-N,4-dimethylpentanamide]	97	84			
CN(C)C1(c2cccs2)CCN(C(=O)CC(NC(=O)Cc2c[nH]c3cc(F)ccc23)c2ccccc2)CC1 (stereo not shown) [Example 93, N-(3-(4-(dimethylamino)-4-(thiophen-2-yl)piperidin-1-yl)-3-oxo-1-phenylpropyl)-2-(6-fluoro-1H-indol-3-yl)acetamide]	97	88			
COc1ccc2c(c1)c(CN(C)CCN1CCC(c3ccccc3)(N(C)C)CC1)c(C)n2Cc1ccccc1 [Example 77, 1-(2-(((1-Benzyl-5-methoxy-2-methyl-1H-indol-3-yl)methyl)(methyl)amino)ethyl)-N,N-dimethyl-4-phenylpiperidin-4-amine]			89	60	
COc1ccc2[nH]cc(CNCCN3CCC(c4cccs4)(N(C)C)CC3)c2c1 [Example 76, 1-(2-((5-Methoxy-1H-indol-3-yl)methylamino)ethyl)-N,N-dimethyl-4-(thiophen-2-yl)pipendin-4-amine]				93	99
CCCCC1(N(C)C)CCN(CCN(C)C(=O)C2CCCc3c2[nH]c2ccc(Cl)cc32)CC1 (stereo not shown) [Example 43, N-(2-(4-Butyl-4-(dimethylamino)piperidin-1-yl)ethyl)-6-chloro-N-methyl-2,3,4,9-tetrahydro-1H-carbazole-1-carboxamide]	54	21			
CC(C)c1ccc2c(CN(C)CCN3CCC(c4ccccc4)(N(C)C)CC3)c[nH]c2c1 [Example 180, 1-(2-(((6-isopropyl-1H-indol-3-yl)methyl)(methyl)amino)ethyl)-N,N-dimethyl-4-phenylpiperidin-4-amine]	95	96			
CN(CCCN1CCC(c2ccccc2)(N(C)C)CC1)C(=O)CCc1cn(C)c2ccccc12 [Example 50, N-(3-(4-(Dimethylamino)-4-phenylpiperidin-1-yl)propyl)-N-methyl-3-(1-methyl-1H-indol-3-yl)propanamide]	79	39			
CN(CCN1CCC(c2ccccc2)(N(C)C)CC1)Cc1ccc2cc[nH]c2c1 [Example 181, 1-(2-(((1H-indol-6-yl)methyl)(methyl)amino)ethyl)-N,N-dimethyl-4-phenylpiperidin-4-amine]	34	96			
CN(CCN1CCC(c2ccccc2)(N(C)C)CC1)Cc1c(-c2ccccc2)[nH]c2ccccc12 [Example 71, N,N-Dimethyl-1-(2-(methyl((2-phenyl-1H-indol-3-yl)methyl)amino)ethyl)-4-phenylpipendin-4-amine]	96	83			
CN(C(=O)Cc1c[nH]c2cc(F)ccc12)C(C(=O)N1CCC(c2cccs2)(N(C)C)CC1)c1ccccc1 (stereo not shown) [Example 95, N-(2-(4-(dimethylamino)-4-(thiophen-2-yl)piperidin-1-yl)-2-oxo-1-phenylethyl)-2-(6-fluoro-1H-indol-3-yl)-N-methylacetamide]	81	82			
CN(CCN1CCC(c2ccccc2)(N(C)C)CC1)C(=O)c1ccc2cc[nH]c2c1 [Example 18, N-(2-(4-(Dimethylamino)-4-phenylpiperidin-1-yl)ethyl)-N-methyl-1H-indole-6-carboxamide]	95	82			
CN(C)C1(c2ccccc2)CCN(C(=O)C2CN(C(=O)c3cccc4c3ccn4C)c3ccccc32)CC1 (stereo not shown) [Example 114, (4-(dimethylamino)-4-phenylpiperidin-1-yl)(1-(1-methyl-1H-indole-4-carbonyl)indolin-3-yl)methanone]	90	56			
CN(C)C1(c2ccccc2)CCN(C(=O)CCNC(=O)C2CCCc3c2[nH]c2ccc(Cl)cc32)CC1 (stereo not shown) [Example 107, 6-chloro-N-(3-(4-(dimethylamino)-4-phenylpiperidin-1-yl)-3-oxopropyl)-2,3,4,9-tetrahydro-1H-carbazole-1-carboxamide]	52	63			
CCCCC1(N(C)C)CCN(CCN(C)C(=O)Cc2c[nH]c3cc(F)ccc23)CC1 [Example 44, N-(2-(4-Butyl-4-(dimethylamino)piperidin-1-yl)ethyl)-2-(6-fluoro-1H-indol-3-yl)-N-methylacetamide]				50	92
CN(CCN1CCC(c2ccccc2)(N(C)C)CC1)Cc1cccc2[nH]ccc12 [Example 194, 1-(2-(((1H-indol-4-yl)methyl)(methy)amino)ethyl)-N,N-dimethyl-4-phenylpiperidin-4-amine]			99	56	
CN(C)C1(c2cccs2)CCN(C(=O)CNC(=O)c2cccc3c2ccn3C)CC1 [Example 135, N-(2-(4-(dimethylamino)-4-(thiophen-2-yl)piperidin-1-yl)-2-oxoethyl)-1-methyl-1H-indole-4-carboxamide]	61	27			
CN(C)C1(c2ccccc2)CCN(C(=O)CCNCc2ccc3[nH]ccc3c2)CC1 [Example 142, 3-((1H-indol-5-yl)methylamino)-1-(4-(dimethylamino)-4-phenylpiperidin-1-yl)propan-1-one]	78	40			
CN(CCCN1CCC(c2cccs2)(N(C)C)CC1)C(=O)c1cccc2c1ccn2C [Example 30, N-(3-(4-(Dimethylamino)-4-(thiophen-2-yl)piperidin-1-yl)propyl)-N,1-dimethyl-1H-indole-4-carboxamide]	78	21			
CN(C)C1(c2cccs2)CCN(CCNC(=O)CCc2c[nH]c3ccccc23)CC1 [Example 5, N-(2-(4-(Dimethylamino)-4-(thiophen-2-yl)piperidin-1-yl)ethyl)-3-(1H-indol-3-yl)propanamide]	98	89			
Cc1c(CN(C)CCN2CCC(c3ccccc3)(N(C)C)CC2)c2ccccc2n1C [Example 79, 1-(2-(((1,2-Dimethyl-1H-indol-3-yl)methyl)(methyl)amino)ethyl)-N,N-dimethyl-4-phenylpiperidin-4-amine]			101	83	
CC(CC(=O)N(C)CCCN1CCC(c2cccs2)(N(C)C)CC1)c1c[nH]c2ccccc12 (stereo not shown) [Example 19, N-(3-(4-(Dimethylamino)-4-(thiophen-2-yl)piperidin-1-yl)propyl)-3-(1H-indol-3-yl)-N-methylbutanamide]	89	59			
